Experimental data taken from US12441733B2, “Substituted 2,4-dioxotetrahydropyrimidines as intermediates in the synthesis of bruton's tyrosine kinase inhibitors” (Novartis AG, priority 2018, dated 2025).

Molecular target: T1, BTK(C481S)-GFP (Homo sapiens, UniProt Q06187+Q96SW2, C481S)
T1 construct: CHYSEL (cis-acting hydrolase element, 2A) remnant after GFP; mCherry is split off as a separate protein (C); expressed in transfected cells; host or cells: TMD8 cells, lentiviral transduction with pLenti6-BTK(C481S)-GFP-CHYSEL-mCherry
T1 sequence (Q06187 whole entry C481S): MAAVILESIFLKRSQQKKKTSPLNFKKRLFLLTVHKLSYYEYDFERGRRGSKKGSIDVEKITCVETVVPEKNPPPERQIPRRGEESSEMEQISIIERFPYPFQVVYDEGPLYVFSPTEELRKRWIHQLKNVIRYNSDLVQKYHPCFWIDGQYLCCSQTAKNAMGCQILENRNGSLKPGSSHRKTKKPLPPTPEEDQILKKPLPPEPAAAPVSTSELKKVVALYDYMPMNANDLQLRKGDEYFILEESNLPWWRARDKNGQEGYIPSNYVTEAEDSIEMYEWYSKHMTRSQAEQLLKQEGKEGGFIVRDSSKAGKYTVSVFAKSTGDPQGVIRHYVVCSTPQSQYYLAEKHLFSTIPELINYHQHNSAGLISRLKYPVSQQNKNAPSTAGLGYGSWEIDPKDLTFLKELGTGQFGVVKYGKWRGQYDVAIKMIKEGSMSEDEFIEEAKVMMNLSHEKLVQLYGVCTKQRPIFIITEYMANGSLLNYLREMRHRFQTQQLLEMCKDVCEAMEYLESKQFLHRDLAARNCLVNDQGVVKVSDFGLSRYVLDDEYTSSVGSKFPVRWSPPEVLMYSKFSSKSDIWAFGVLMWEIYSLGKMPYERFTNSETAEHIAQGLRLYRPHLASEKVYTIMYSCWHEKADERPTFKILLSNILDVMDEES
T1 sequence (Q96SW2 whole entry): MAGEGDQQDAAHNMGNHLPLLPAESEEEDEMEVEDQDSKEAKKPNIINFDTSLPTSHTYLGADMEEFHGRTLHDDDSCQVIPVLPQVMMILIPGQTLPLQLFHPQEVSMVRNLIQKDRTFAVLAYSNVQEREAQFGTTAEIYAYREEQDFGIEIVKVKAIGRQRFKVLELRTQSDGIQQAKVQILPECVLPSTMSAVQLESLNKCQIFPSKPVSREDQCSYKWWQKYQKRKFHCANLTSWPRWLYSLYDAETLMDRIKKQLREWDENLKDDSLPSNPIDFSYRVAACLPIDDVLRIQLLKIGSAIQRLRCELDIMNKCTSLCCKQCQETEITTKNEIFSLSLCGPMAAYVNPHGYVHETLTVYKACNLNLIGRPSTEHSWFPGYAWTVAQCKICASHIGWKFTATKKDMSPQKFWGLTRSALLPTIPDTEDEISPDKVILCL
T1 sequence (Q16531 whole entry partner): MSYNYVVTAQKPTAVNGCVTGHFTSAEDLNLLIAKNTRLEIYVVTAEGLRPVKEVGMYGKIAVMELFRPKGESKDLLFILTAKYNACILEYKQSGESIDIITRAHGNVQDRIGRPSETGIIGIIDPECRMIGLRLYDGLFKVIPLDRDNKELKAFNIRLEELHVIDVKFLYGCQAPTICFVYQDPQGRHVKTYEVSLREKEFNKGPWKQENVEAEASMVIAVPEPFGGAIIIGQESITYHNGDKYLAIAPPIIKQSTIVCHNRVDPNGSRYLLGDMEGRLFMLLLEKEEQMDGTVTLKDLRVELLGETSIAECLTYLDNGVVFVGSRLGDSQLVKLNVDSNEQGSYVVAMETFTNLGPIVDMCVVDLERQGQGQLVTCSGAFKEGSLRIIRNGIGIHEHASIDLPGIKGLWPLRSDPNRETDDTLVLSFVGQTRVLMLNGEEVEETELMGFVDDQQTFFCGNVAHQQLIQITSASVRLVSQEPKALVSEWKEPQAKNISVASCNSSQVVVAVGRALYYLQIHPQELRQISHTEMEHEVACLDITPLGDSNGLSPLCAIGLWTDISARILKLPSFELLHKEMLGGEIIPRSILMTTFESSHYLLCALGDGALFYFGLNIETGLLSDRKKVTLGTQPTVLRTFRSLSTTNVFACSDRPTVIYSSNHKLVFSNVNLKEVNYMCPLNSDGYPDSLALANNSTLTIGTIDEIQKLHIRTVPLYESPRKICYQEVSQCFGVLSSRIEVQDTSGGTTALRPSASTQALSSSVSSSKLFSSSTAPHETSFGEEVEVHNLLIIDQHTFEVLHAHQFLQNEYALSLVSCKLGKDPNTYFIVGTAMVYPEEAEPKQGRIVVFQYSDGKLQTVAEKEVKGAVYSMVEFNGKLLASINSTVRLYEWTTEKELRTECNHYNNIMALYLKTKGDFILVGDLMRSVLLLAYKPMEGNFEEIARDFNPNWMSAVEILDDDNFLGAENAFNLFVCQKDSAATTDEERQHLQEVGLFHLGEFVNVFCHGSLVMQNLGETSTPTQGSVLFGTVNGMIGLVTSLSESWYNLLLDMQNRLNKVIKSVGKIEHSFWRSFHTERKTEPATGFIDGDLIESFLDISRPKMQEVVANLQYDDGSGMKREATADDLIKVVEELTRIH
Test: BTK(C481S)-GFP protein abundance flow cytometry assay in TMD8 cells
Format: cell-based
Details: TMD8 cells expressing BTK(C481S)-GFP; for DC50: GFP signal by flow cytometry; for BTK (C481S) Amax: % protein remaining at maximum degradation
Experimental: Compounds of the invention were tested in the following cellular assays. The terms in Table 2 are defined as follows: DC50 refers to the concentration at which 50% maximal degradation was observed; deg Amax is the extent of degradation and the value refers to the % protein remaining at the concentration at which maximum degradation is seen; ProI GI50 refers to the proliferation data and defines the concentration at which 50% growth inhibition was observed compared to the vehicle treated control at the end of the incubation time. TMD8 cells are BTK dependent and OCI-LY3 cells are BTK independent.
Btk(C481S)-GFP Protein Abundance Flow Cytometry Assay in TMD8 Cells:
Degradation of BTK(C481S) was measured in TMD8 cells expressing BTK(C481S)-GFP and mCherry from a stably integrated second generation bicistronic BTK(C481S)-GFP-CHYSEL-mCherry construct. Reduction of the […] measured by flow cytometry served as readout for BTK(C481S) degradation after degrader treatment.
Cloning of the pLenti6-BTK(C481)-GFP-CHYSEL-mCherry Sensor Vectors
The BTK(C481 S) protein abundance sensor is based on a second generation bicistronic construct, where the 2 reading frames BTK(C481S) and mCherry control are separated by a cis-acting hydrolase element (see: Lo et al., 2015 Cell Reports 13, 2634), replacing the Ires from the first generation vector described before.
The bicistronic BTK(C481S)-GFP-CHYSEL-mCherry construct is based on a pLenti6-DEST vector backbone where a GFP-CHYSEL-mCherry cassette was synthesized and inserted downstream of the DEST cassette by Gibson assembly resulting in the new gateway compatible vector pLenti6-DEST-GFP-CHYSEL-mCherry to allow Gateway cloning with pENTR221-BTK(C48S)(STOP-Leu) to obtain the final sensor construct pLenti6-BTK(C481S)-GFP-CHYSEL-mCherry. The pENTR221-BTK(C481S)(STOP-Leu) was generated by mutating wild-type BTK to BTK(C481S) with a mutagenesis reaction on pENTR221-BTK (STOP-Leu) with the following primers (BTK C481S Quikchange fw, gagtacatggccaatggctCcctcctgaactacctgagg (SEQ ID NO: 7); BTK C481S Quikchange REVC, cctcaggtagttcaggaggGagccattggccatgtactc (SEQ ID NO: 8)) using the QuikChange Lightning mutagenesis kit (Agilent Technologies #210518) performed according to the manufacturer's manual, resulting in pENTR221-BTK(C481S)(STOP-Leu).
Sequence of the synthesized construct (Xho1 sites are shown in bold, mCherry-ORF is shown in small letters):
Engineering of Stably Expressing TMD8 BTK(C481 S-GFP-CHYSEL-mCherry Sensor Cells
TMD8 BTK(C481S)-GFP-CHYSEL-mCherry sensor cells were generated by lentiviral vector transduction using the pLenti6-BTK(C4818)-GFP-CHYSEL-mCherry sensor construct described before. Lentiviral particles were produced in HEK293FT cells (Invitrogen R70007) by co-transfection of 500 ng pLenti6-BTK-GFP-Ires-RFP or pLenti6-IKZF3-GFP-Ires-RFP, 500 ng delta8.71 and 200 ng pVSVG diluted in 100 μl OptiMEM serum free medium (Invitrogen #11058-021) that was mixed after 5 min preincubation with 3 μl of Lipofectamine2000 (Invitrogen #11668-019) in 97 μl OptiMEM serum free medium. The mix was incubated for another 20 min at RT and then added to 1 ml of a freshly prepared suspension of HEK293FT cells in a well of a 6-well plate (concentration 1.2×10^6 cells/ml). 1 day after transfection, the medium was replaced with 1.5 ml of complete growth medium (DMEM high Glucose+10% FCS+1% L-Glutamine+1% NEAA+1% NaPyr.). 48 h post transfection supernatant containing viral transducing particles was collected and frozen at −80° C.
Two days before transduction with viral particles 1×10^5 HEK293A cells (Invitrogen R7057) were seeded in 2 ml growth medium in a well of a 6-well plate. Infection was performed with 90 μl of collected supernatant containing viral transducing particles in 1 ml medium including 8 μg/ml polybrene. 24 h post infection, stably transfected cells were selected with blasticidin at a concentration of 8 μg/ml.

| Structure (SMILES) | DC50 | BTK (C481S) Amax |
| --- | --- | --- |
| CCOc1ccc(C(=O)N2CCC3(CCN(Cc4ccc(-c5cc6c(-c7cc(F)cc(NC(=O)c8ccc(C(C)(C)O)cc8F)c7C)ncnc6[nH]5)cc4)CC3)CC2)cc1N1CCC(=O)NC1=O [Compound 4, N-(3-(6-(4-((9-(3-(2,4-Dioxotetrahydropyrimidin-1(2H)-yl)-4-ethoxybenzoyl)-3,9-diazaspiro[5.5]undecan-3-yl)methyl)phenyl)-7H-pyrrolo[2,3-d]pyrimidin-4-yl)-5-fluoro-2-methylphenyl)-2-fluoro-4-(2-hydroxypropan-2-yl)benzamide] | 2.08 nM | 2.2% |
| Cc1ccc(C(=O)N2CCC3(CCN(CCc4ccc(-c5cc6c(-c7cc(F)cc(NC(=O)c8ccc(C(C)(C)O)cc8F)c7C)ncnc6[nH]5)cc4)CC3)CC2)cc1N1CCC(=O)NC1=O [Compound 5, N-(3-(6-(4-(2-(9-(3-(2,4-Dioxotetrahydropyrimidin-1(2H)-yl)-4-methylbenzoyl)-3,9-diazaspiro[5.5]undecan-3-yl)ethyl)phenyl)-7H-pyrrolo[2,3-d]pyrimidin-4-yl)-5-fluoro-2-methylphenyl)-2-fluoro-4-(2-hydroxypropan-2-yl)benzamide] | 0.57 nM | 2.5% |
| Cc1c(NC(=O)c2ccc(C(C)(C)O)cc2F)cc(F)cc1-c1ncnc2[nH]c(-c3ccc(COC4CCN(CCC5CCN(C(=O)c6ccc(F)c(N7CCC(=O)NC7=O)c6)CC5)CC4)cc3)cc12 [Compound 6, N-(3-(6-(4-(((1-(2(1-(3-(2,4-dioxotetrahydropyrimidin-1(2H)-yl)-4-fluorobenzoyl)piperidin-4-yl)ethyl)piperidin-4-yl)oxyl)methyl)phenyl)-7H-pyrrolo[2,3-d]pyrimidin-4-yl)-5-fluoro-2-methylphenyl)-2-fluoro-4-(2-hydroxypropan-2-yl)benzamide] | 0.72 nM | 2.1% |
| COc1ccc(C(=O)N2CCC(OC3CCN(Cc4ccc(-c5cc6c(-c7cc(F)cc(NC(=O)c8ccc(C(C)(C)O)cc8F)c7C)ncnc6[nH]5)cc4)CC3)CC2)cc1N1CCC(=O)NC1=O [Compound 8, N-(3-(6-(4-((4-((1-(3-(2,4-dioxotetrahydropyrimidin-1(2H)-yl)-4-methoxybenzoyl)piperidin-4-yl)oxyl)piperidin-1-yl)methyl)phenyl)-7H-pyrrolo[2,3-d]pyrimidin-4-yl)-5-fluoro-2-methylphenyl)-2-fluoro-4-(2-hydroxypropan-2-yl)benzamide] | 2.08 nM | 2.7% |
| COc1ccc(C(=O)N2CCC3(CCN(Cc4ccc(-c5cc6c(-c7cc(F)cc(NC(=O)c8ccc(C(C)(C)O)cc8F)c7C)ncnc6[nH]5)cc4)CC3)CC2)cc1N1CCC(=O)NC1=O [Compound 9, N-(3-(6-(4-((9-(3-(2,4-Dioxotetrahydropyrimidin-1(2H)-yl)-4-methoxybenzoyl)-3,9-diazaspiro[5.5]undecan-3-yl)methyl)phenyl)-7H-pyrrolo[2.3-d]pyrimidin-4-yl)-5-fluoro-2-methylphenyl)-2-fluoro-4-(2-hydroxypropan-2-yl)benzamide] | 1.92 nM | 4.5% |
| Cc1c(NC(=O)c2ccc(C(C)(C)O)cc2F)cc(F)cc1-c1ncnc2[nH]c(-c3ccc(CCN4CCC5(CC4)CCN(C(=O)c4cccc(N6CCC(=O)NC6=O)c4)CC5)cc3)cc12 [Compound 12, N-(3-(6-(4-(2-(9-(3-(2,4-Dioxotetrahydropyrimidin-1(2H)-yl)benzoyl)-3,9-diazaspiro[5,5]undecan-3-yl)ethyl)phenyl)-7H-pyrrolo[2,3-d]pyrimidin-4-yl)-5-fluoro-2-methylphenyl)-2-fluoro-4-(2-hydroxypropan-2-yl)benzamide] | 1.58 nM | 2.9% |
| Cc1c(NC(=O)c2ccc(C(C)(C)O)cc2F)cc(F)cc1-c1ncnc2[nH]c(-c3ccc(CN4CCC5(CC4)CCN(C(=O)c4ccc(F)c(N6CCC(=O)NC6=O)c4)CC5)cc3)cc12 [Compound 14, N-(3-(6-(4-((9-(3-(2,4-Dioxotetrahydropyrimidin-1(2H)-yl)-4-fluorobenzoyl)-3,9-diazaspiro[5.5]undecan-3-yl)methyl)phenyl)-7H-pyrrolo[2.3-d]pyrimidin-4-yl)-5-fluoro-2-methylphenyl)-2-fluoro-4-(2-hydroxypropan-2-yl)benzamide] | 1.52 nM | 2.8% |
| COc1ccc(C(=O)N2CCC(CN3CCC(Oc4ccc(-c5cc6c(-c7cc(F)cc(NC(=O)c8ccc(C(C)(C)O)cc8F)c7C)ncnc6[nH]5)cc4)CC3)CC2)cc1N1CCC(=O)NC1=O [Compound 19, N-(3-(6-(4-((1-((1-(3-(2,4-Dioxotetrahydropyrimidin-1(2H)-yl)-4-methoxybenzoyl)piperidin-4-yl)methyl)piperidin-4-yl)oxyl)phenyl)-7H-pyrrolo[2,3-d]pyrimidin-4-yl)-5-fluoro-2-methylphenyl)-2-fluoro-4-(2-hydroxypropan-2-yl)benzamide] | 0.62 nM | 2.7% |
| COc1ccc(C(=O)N2CCC3(CC2)CCN(C(C)(C)Cc2ccc(-c4cc5c(-c6cc(F)cc(NC(=O)c7ccc(C(C)(C)O)cc7F)c6C)ncnc5[nH]4)cc2)CC3)cc1N1CCC(=O)NC1=O [Compound 20, N-(3-(6-(4-(2-(9-(3-(2,4-Dioxotetrahydropyrimidin-1(2H)-yl)-4-methoxybenzoyl)-3,9-diazaspiro[5.5]undecan-3-yl)-2-methylpropyl)phenyl)-7H-pyrrolo[2,3-d]pyrimidin-4-yl)-5-fluoro-2-methylphenyl)-2-fluoro-4-(2-hydroxypropan-2-yl)benzamide] | 0.68 nM | 2.4% |
| COc1ccc(C(=O)N2CCN(C(=O)N3CCN(Cc4ccc(-c5cc6c(-c7cc(F)cc(NC(=O)c8ccc(C(C)(C)O)cc8F)c7C)ncnc6[nH]5)cc4)CC3)CC2)cc1N1CCC(=O)NC1=O [Compound 22, N-(3-(6-(4-((4-(4-(3-(2,4-Dioxotetrahydropyrimidin-1(2H)-yl)-4-methoxybenzoyl)piperazine-1-carbonyl)piperazin-1-yl)methyl)phenyl)-7H-pyrrolo[2,3-d]pyrimidin-4-yl)-5-fluoro-2-methylphenyl)-2-fluoro-4-(2-hydroxypropan-2-yl)benzamide] | 2.47 nM | 4.5% |
| Cc1ccc(C(=O)N2CCC3(CCN(Cc4ccc(-c5cc6c(-c7cc(F)cc(NC(=O)c8ccc(C(C)(C)O)cc8F)c7C)ncnc6[nH]5)cc4)CC3)CC2)cc1N1CCC(=O)NC1=O [Compound 27, N-(3-(6-(4-((9-(3-(2,4-Dioxotetrahydropyrimidin-1(2H)-yl)-4-methylbenzoyl)-3,9-diazaspiro[5.5]undecan-3-yl)methyl)phenyl)-7H-pyrrolo[2,3-d]pyrimidin-4-yl)-5-fluoro-2-methylphenyl)-2-fluoro-4-(2-hydroxypropan-2-yl)benzamide] | 0.81 nM | 2.8% |
